# Experimental data as given in ChEMBL document CHEMBL4419163, “Assays for identifying compounds that modulate bitter taste” (2014).
# Key:
# Type in all cases: functional, cell-based
# [1] = biological target: T1, Taste receptor type 2 member 39 (Homo sapiens) (UniProt P59534); experiment: Agonist activity at human TAS2R39 expressed in HEK293T cells co-expressing Galpha15 assessed as increase in intracellular calcium level at 20 mM by Calcium-3 dye based fluorescence assay relative to control
# T1 sequence (whole entry): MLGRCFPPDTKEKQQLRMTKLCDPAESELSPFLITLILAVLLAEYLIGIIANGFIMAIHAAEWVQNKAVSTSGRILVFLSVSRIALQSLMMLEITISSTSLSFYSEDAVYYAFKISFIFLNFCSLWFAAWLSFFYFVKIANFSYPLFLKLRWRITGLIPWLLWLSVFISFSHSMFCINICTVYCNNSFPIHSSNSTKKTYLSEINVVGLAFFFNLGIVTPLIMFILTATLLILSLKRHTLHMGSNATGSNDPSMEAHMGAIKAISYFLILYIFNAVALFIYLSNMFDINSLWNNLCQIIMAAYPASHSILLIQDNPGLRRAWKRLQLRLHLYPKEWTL
# [2] = biological target: T2, Taste receptor type 2 member 42 (Homo sapiens) (UniProt Q7RTR8); experiment: Agonist activity at human TAS2R55 expressed in HEK293T cells co-expressing Galpha15 assessed as increase in intracellular calcium level at 20 mM by Calcium-3 dye based fluorescence assay relative to control
# T2 sequence (whole entry): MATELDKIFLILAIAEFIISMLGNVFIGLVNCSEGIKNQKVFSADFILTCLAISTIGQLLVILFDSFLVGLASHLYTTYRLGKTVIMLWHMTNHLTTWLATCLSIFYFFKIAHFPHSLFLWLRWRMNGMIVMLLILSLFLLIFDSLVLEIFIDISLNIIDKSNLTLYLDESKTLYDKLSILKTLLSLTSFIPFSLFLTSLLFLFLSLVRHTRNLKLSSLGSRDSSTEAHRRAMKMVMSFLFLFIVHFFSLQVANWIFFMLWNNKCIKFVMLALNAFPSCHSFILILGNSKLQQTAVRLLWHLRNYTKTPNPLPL
# [3] = biological target: T3, Taste receptor type 2 member 4 (Homo sapiens) (UniProt Q9NYW5); experiment: Agonist activity at human TAS2R4 expressed in HEK293T cells co-expressing Galpha15 assessed as increase in intracellular calcium level at 20 mM by Calcium-3 dye based fluorescence assay relative to control
# T3 sequence (whole entry): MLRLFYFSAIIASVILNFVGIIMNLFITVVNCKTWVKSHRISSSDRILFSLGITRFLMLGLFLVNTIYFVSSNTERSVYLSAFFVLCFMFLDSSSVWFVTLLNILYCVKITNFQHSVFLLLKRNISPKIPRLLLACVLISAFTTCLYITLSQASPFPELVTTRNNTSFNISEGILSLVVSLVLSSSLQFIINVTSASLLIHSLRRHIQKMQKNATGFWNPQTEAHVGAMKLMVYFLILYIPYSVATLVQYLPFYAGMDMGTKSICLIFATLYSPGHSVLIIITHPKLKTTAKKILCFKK
# [4] = biological target: T4, Taste receptor type 2 member 30 (Homo sapiens) (UniProt P59541); experiment: Agonist activity at human TAS2R47 expressed in HEK293T cells co-expressing Galpha15 assessed as increase in intracellular calcium level at 20 mM by Calcium-3 dye based fluorescence assay relative to control
# T4 sequence (whole entry): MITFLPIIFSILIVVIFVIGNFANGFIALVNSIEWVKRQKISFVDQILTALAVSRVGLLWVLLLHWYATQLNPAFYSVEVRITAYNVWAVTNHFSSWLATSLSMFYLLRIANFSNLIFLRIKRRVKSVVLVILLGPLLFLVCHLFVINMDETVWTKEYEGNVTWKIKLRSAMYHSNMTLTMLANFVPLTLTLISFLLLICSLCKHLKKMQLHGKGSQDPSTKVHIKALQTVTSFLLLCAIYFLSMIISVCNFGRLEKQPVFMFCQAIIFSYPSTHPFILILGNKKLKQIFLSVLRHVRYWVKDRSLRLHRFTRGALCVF
# [5] = biological target: T5, Taste receptor type 2 member 7 (Homo sapiens) (UniProt Q9NYW3); experiment: Agonist activity at human TAS2R7 expressed in HEK293T cells co-expressing Galpha15 assessed as increase in intracellular calcium level at 20 mM by Calcium-3 dye based fluorescence assay relative to control
# T5 sequence (whole entry): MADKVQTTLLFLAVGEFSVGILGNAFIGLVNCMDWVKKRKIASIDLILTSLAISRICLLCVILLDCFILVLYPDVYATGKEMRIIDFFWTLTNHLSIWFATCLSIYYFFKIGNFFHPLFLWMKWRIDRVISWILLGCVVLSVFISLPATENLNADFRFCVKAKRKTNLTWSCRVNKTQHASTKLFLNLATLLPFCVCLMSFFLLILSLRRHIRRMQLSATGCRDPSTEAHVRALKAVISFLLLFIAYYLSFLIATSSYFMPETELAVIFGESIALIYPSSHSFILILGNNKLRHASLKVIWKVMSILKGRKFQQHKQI
# [6] = biological target: T6, Taste receptor type 2 member 13 (Homo sapiens) (UniProt Q9NYV9); experiment: Agonist activity at human TAS2R13 expressed in HEK293T cells co-expressing Galpha15 assessed as increase in intracellular calcium level at 20 mM by Calcium-3 dye based fluorescence assay relative to control
# T6 sequence (whole entry): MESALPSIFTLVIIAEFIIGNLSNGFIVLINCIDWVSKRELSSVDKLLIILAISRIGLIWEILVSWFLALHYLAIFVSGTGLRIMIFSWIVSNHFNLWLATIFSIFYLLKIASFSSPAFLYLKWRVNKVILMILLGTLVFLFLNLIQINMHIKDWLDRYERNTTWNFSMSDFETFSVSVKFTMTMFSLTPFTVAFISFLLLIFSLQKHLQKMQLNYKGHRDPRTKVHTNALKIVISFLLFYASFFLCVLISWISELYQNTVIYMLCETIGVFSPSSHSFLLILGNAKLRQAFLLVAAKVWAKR
# [7] = biological target: T7, Taste receptor type 2 member 14 (Homo sapiens) (UniProt Q9NYV8); experiment: Agonist activity at human TAS2R14 expressed in HEK293T cells co-expressing Galpha15 assessed as increase in intracellular calcium level at 20 mM by Calcium-3 dye based fluorescence assay relative to control
# T7 sequence (whole entry): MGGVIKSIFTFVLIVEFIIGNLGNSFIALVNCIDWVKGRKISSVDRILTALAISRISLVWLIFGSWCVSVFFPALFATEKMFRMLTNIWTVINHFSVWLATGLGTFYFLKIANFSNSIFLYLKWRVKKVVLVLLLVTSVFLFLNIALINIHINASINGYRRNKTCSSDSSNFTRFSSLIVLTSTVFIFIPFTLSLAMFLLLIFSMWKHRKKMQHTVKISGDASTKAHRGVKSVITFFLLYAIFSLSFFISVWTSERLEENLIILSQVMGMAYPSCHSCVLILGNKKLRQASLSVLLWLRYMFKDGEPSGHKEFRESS
SMILES,Activity [1] [%],Activity [2] [%],Activity [3] [%],Activity [4] [%],Activity [5] [%],Activity [6] [%],Activity [7] [%]
CC(O)C(=O)[O-].[K+] (stereo unspecified),< 40,< 40,> 40,< 40,< 40,> 40,> 40
CC1=CC(=O)NS(=O)(=O)O1,< 40,< 40,> 40,< 40,< 40,> 40,> 40
[Cl-].[K+] [POTASSIUM CHLORIDE],< 40,< 40,> 40,< 40,< 40,> 40,> 40
